Patent publication US12133486B2, “Methods of propagation of arbuscular mycorrhizal fungi (AMF) and uses thereof” (Terra Microbes, LLC, priority 2021, dated 2024)

What was measured:
AM fungi = assay: Field plot study: AMF spore counts in soil around western wheatgrass roots; format: in vivo; settings: field plots; for Total Spores t = 47 days / Total Spores t = 0 days: mean n = 3, P added at 120 kg/ha (KCl: same K); for Total Spores t = 47 days / spore numbers compared with the control: second sampling; for Total Spores t = 0 days: t = 0 = first sampling, 14 days after treatment; for spore numbers compared with the control: t = 47
From the text: (§1) Twelve plots of size 50 cm by 50 cm were established on a homogenous site 2.54 meters (running northeast and southwest) by 4.06 meters (running southeast and northwest). Plant distribution was mostly homogeneous across the entire site, with western wheatgrass dominant. The plots were in four rows with three plots in each row. Within a row plots were 25 cm apart. Rows were 50 cm apart. An experimental unit was one plot. Treatments were replicated three times. Treatments included: controls (no treatment), potassium chloride treatment, potassium phosphate treatment, and potassium phosphite treatment. (See, FIG. 2).
In this study phosphorus, either as phosphate or phosphite, was added at a rate of 120 kg of P per hectare (ha). Scaled down this equates to 3 grams of phosphorous per plot. One ha is 10,000 m^2. Each plot is 50 cm by 50 cm, or 0.25 m^2. The subsequent calculation then is 120 Kg/10,000 m^2=X/0.25 m^2; X=3.00 grams of P per plot. (See Table 2).
(§2) Treatments: All plots received the same amount of solution. The control plots were treated with distilled water only (6.375 L). The KCl plots treated with distilled water containing the same amount of K as was needed to convert the phosphorous acid (H3PO3) to dipotassium phosphite (K2HPO3). The phosphate plots were treated with sufficient dipotassium phosphate (K2HPO4) to deliver 3 g of P per plot dissolved in the same amount of distilled water as the control plots received and the KCl plots received. The phosphite plots were treated with sufficient dipotassium phosphite (K2HPO3) to deliver 3 g of P per plot dissolved in the same amount of distilled water as the control plots received, the KCl plots received and the phosphate plots received.
The field experiment reported in this example was conducted during June through October. Plots were established during early June and treated on the 15th and 16th day (as in Example 3 above). The first soil and root sampling was performed 14 days later (t=14). The second set of samples were taken 47 days later (t=61), and the third set 60 days later (t=121 days). Sample size and depth was as detailed above in Example 3.
AMF spores were evaluated in soil samples from which plant roots including plant roots of western wheatgrass had existed and had been removed. Evaluations were performed on the T=0 and the T=47 samples. These evaluations generally entailed mixing the sample with water, centrifugation, and decanting water. This step was performed to remove light organic matter and other light materials, e.g., leaf fragments. This was followed by mixing the soil with a solution of sodium hexametaphosphate (2%) in 2 M sucrose. Centrifugation results in the spores floating on the sucrose solution or suspended in it. The sucrose solution plus spores is decanted into a separatory funnel. The suspension was allowed to exit the funnel one drop at a time. The spores adhere to the inside of the funnel and once all liquid has exited the funnel the spores are washed into a petri-dish and counted under a dissecting microscope.
The specific protocol for spore extraction was as follows: • A) Weigh 5 g of air dried soil into a 20 ml centrifuge tube. For a complete sample this is replicated four times. • B) Fill each tube with water to ˜1.5 cm of the top. Stir to suspend organic matter and other light debris. Let all tubes stand for 10 minutes. • C) Centrifuge at 2000 rpm (475.2×g) for 10 minutes. Be sure tubes are placed across from each other in the centrifuge and are within 0.1 g of the same weight. • D) Pour off and discard supernatant while stirring surface and rotating tube. • E) If much organic matter and other light material remains, repeat steps B through D. • F) Add sucrose/sodium hexametaphosphate solution (2 molar sucrose containing 2% hexametaphosphate: 684.6 g of sucrose (store grade is adequate) and 20 g of sodium hexametaphosphate in one liter of solution using distilled water) to centrifuge tubes to ˜1.5 cm of top. […]

[1] = tested on: AMF infections of western wheatgrass (Pascopyron smithii) roots; assay: Field plot study: AM fungal infection of western wheatgrass roots; format: in vivo; settings: for AM Infection t = 0 days / AM Infection t = 47 days / AM Infection t = 97 days: western wheatgrass roots, field plots, mean n = 3; for AM Infection t = 0 days: first sampling; for AM Infection t = 97 days: third sampling
From the text: as §1, §2
The field experiment reported in this example was conducted during June through October. Plots were established during early June and treated on the 15th and 16th day (as in Example 3 above). […] Sample size and depth was as detailed above in Example 3.
Analyses of infections were performed by examining roots of wheatgrass (Pascopyron smithii). This plant was the dominant plant in all of the plots and is known to be commonly infected with AM fungi. (See, Loree M. A. J. and Williams S. E., New Phytologist, 106:735-744, 1987; and Wang B. and Qui Y.-L. 2006, Ibid.). During sampling of soils using the methodology outlined in Example 3, above, root of target plants were removed and separated by plant species, each sample being labeled and preserved in FAA solution until being further processed.
Staining of the roots was achieved according to published procedures (see, Phillips J. M. and Hayman D. S., Trans. Brit. Mycological Soc., 55:158-160, 1970) except that cotton blue lactophenol was substituted with lactic acid glycerol with trypan blue since lactophenol is toxic. The procedure used for staining was as follows: • A) Remove roots from FAA Solutions. Cut into 1 cm lengths. Place in test tube, push roots to the bottom of the test tube. • B) Cover roots with 10% KOH (10 grams of reagent grade KOH in enough distilled water to 100 ml). Let stand overnight, about 10 hours. • C) Simmer at 90° C. for one hour in a water bath (container with water and test tubes with roots over a heat source). • D) Rinse in tap water. • E) Rinse five minutes in 0.1 N HCl (3.65 […] of HCl in 1000 ml total volume with distilled water). • F) Rinse in tap water. • G) Simmer at 90° C. one hour (in water bath) in Trypan blue Lactic Acid Glycerol (distilled water, 100 ml; lactic acid (reagent grade 85 to 88%) 100 ml; glycerin (reagent grade 85% also listed as glycerol), 200 ml; trypan blue, 0.1 grams (60% dye content). • H) Rinse in tap water. • I) Place in clear lactic acid glycerol (same formulation as above except without the Trypan blue) if destaining is necessary. Samples can be simmered at 90° C. (one hour in water bath) or left at room temperature for at least 72 hours or longer. • J) Mount on standard glass slide (2.5 cm by 7.6 cm) in lactic acid glycerol. Cover slip (2.3 cm by 4.8 cm) used.
An estimate of the degree of infection of western wheatgrass was made by making microscopic scans of each slide such that 40 root segments were evaluated. The evaluation was performed using the 20× objective, e.g., 200× total magnification—eyepieces were 10× multiplied by the objective magnification. […]

SMILES	Total Spores t = 47 days (AM fungi) [Ab Per 100 g soil]	Total Spores t = 47 days (AM fungi; listed as phosphite)	Total Spores t = 0 days (AM fungi) [Aa Per 100 g soil]	spore numbers compared with the control (AM fungi)	AM Infection t = 0 days [1]	AM Infection t = 47 days ([1]; second sampling)	AM Infection t = 97 days [1]	root infection level compared with control, KCl and phosphite plots ([1]; second sampling, t = 47)
OP(O)O [PO3, dipotassium phosphite]	17896	17,896 Per 100 g soil	6429	significant increase in spore numbers from the control	32Aa Per forty 1.1 mm root segments	31Aab Per forty 1.1 mm root segments	39ACc Per forty 1.1 mm root segments	
O=P([O-])([O-])O.[K+].[K+] [PO4, dipotassium phosphate]	12960		4998	significant increase in spore numbers from the control	31Aa Per forty 1.1 mm root segments	38.7Bbc Per forty 1.1 mm root segments	38ACc Per forty 1.1 mm root segments	significant increase
